Target: T1, CDK2 (Homo sapiens, UniProt P24941)
T1 construct: endogenous in cells; host or cells: MKN1 cells
Test: CDK2 degradation in MKN1 cells (AlphaLISA)
Format: cell-based
Parameters: key to CDK2 degradation 14 h: Mean external-Abs DC50 (nM): A (<100 nM); B (≥100-500 nM); C (>500-1000 nM); D (>1000 nM); E (not achieved)
Settings: 14 h incubation; for DC50: read-out: CDK2 degradation 14 h: Mean external-Abs DC50
Procedure: Degradation of CDK2 in MKN1 cells was measured using AlphaLISA technology (PerkinElmer ALSU-TCDK2-A10K). MKN1 cells were maintained in RPMI1640 medium containing 10% FBS+1× penn/strep. Cells were seeded in 96-well plates (Corning 3599) at a density of 2e4 cells per well in 80 μL of fresh complete growth medium. Cells were incubated overnight at 37° C., 5% CO2. Compounds were then added to the cell assay plates with a final top concentration of 10 μM in a 1:5 dilution series with a total of 11 doses (0.001 nM-10 μM). The final volume per well was 160 μL and the final DMSO concentration was 0.1%. Additionally, wells containing no cells and only complete growth medium were also maintained on the cell assay plates (‘no cell’ wells) and processed along with experimental wells. After 14 hour-incubation at 37° C., 5% CO2, the medium was removed and the cells were washed once with 100 μL of 1×PBS. Following removal of PBS, 40 μL of 1× Lysis Buffer containing 1× protease and phosphatase inhibitors (Roche 4693116001; Roche 4906837001) were added to each well. The cell assay plate was agitated on a plate shaker at 350 rpm for 10 minutes at room temperature. 10 μL of each cell lysate were transferred to a 384-well plate (PerkinElmer 6007290). 10 μL of control lysates (from PerkinElmer ALSU-TCDK2-A10K kit) were added to separate wells to generate a standard curve. Activation Buffer was prepared by diluting 25-fold in combined Reaction Buffer 1 and Reaction Buffer 2. Acceptor Beads were diluted 50-fold in combined Reaction Buffers. 5 μL of Acceptor Mix were added to each well. The plate was sealed with Topseal-Aadhesive film, covered with foil, and incubated in the dark for 1 hour at room temperature. Under subdued light, the Donor Beads were diluted 50-fold in Dilution Buffer. 5 μL of Donor Mix were added to each well under subdued light. The plate was sealed with Topseal-A adhesive film, covered with foil, and incubated in the dark for 1 hour at room temperature. Under subdued light, the plates were analyzed on an EnVision Microplate Reader (PerkinElmer Model 2009-0030). The average signal from ‘no cell’ wells was subtracted from the signal in experimental wells prior to calculating Alpha signal for test compounds and negative control (0.100 DMSO). The data were analyzed using Xlfit (v5.3. 1.3) and the dose-dependent CDK2 degradation data were fit using a four-parameter logistic model to calculate DC50.

| SMILES | CDK2 degradation 14 h: Average Dmax % | DC50 [µM] | CDK2 degradation 14 h: Mean external-Abs DC50 (nM) |
| --- | --- | --- | --- |
| Cc1cc(S(=O)(=O)C2CC3(CCN(CC4CCN(c5cccc(OC6CCC(=O)NC6=O)c5)CC4)CC3)C2)ccc1Nc1ncc2cc(Cl)c(=O)n(C3CCCC3)c2n1 (stereo not drawn) [I-74] | A (A (>75% o)) | 0.1 to 0.5 | – |
| Cc1cc(S(=O)(=O)C2CC3(CCN(CC4CCN(c5ccc(NC6CCC(=O)NC6=O)cc5C)CC4)CC3)C2)ccc1Nc1ncc2cc(Cl)c(=O)n(C3CCCC3)c2n1 (stereo not drawn) [I-75] | B (B (>50% -75%)) | 0.1 to 0.5 | – |
| Cc1cc(S(=O)(=O)C2CC3(CCN(CC4CCN(c5ccc(NC6CCC(=O)NC6=O)c(C)c5)CC4)CC3)C2)ccc1Nc1ncc2cc(Cl)c(=O)n(C3CCCC3)c2n1 (stereo not drawn) [I-76] | B (B (>50% -75%)) | 0.5 to 1 | – |
| COc1cc(NC2CCC(=O)NC2=O)ccc1N1CCC(CN2CCC3(CC2)CC(S(=O)(=O)c2ccc(Nc4ncc5cc(Cl)c(=O)n(C6CCCC6)c5n4)c(C)c2)C3)CC1 (stereo not drawn) [I-77] | A (A (>75% o)) | < 0.1 | – |
| Cc1cc(S(=O)(=O)C2CC3(CCN(CC4CCN(c5cccc(N6CCC(=O)NC6=O)c5)CC4)CC3)C2)ccc1Nc1ncc2cc(Cl)c(=O)n(C3CCCC3)c2n1 [I-78] | D (D (<25%)) | > 1 | – |
| Cc1cc(S(=O)(=O)C2CC3(CCN(CC4CCN(c5ccc(N6CCC(=O)NC6=O)cc5)CC4)CC3)C2)ccc1Nc1ncc2cc(Cl)c(=O)n(C3CCCC3)c2n1 [I-79] | B (B (>50% -75%)) | 0.1 to 0.5 | – |
| Cc1cc(S(=O)(=O)C2CC3(CCN(CC4CCN(c5cccc(C6CCC(=O)NC6=O)c5)CC4)CC3)C2)ccc1Nc1ncc2cc(Cl)c(=O)n(C3CCCC3)c2n1 (stereo not drawn) [I-80] | C (C (>25% -50%)) | – | E |
| Cc1cc(S(=O)(=O)C2CC3(CCN(CC4CCN(c5ccc(C6CCC(=O)NC6=O)cc5)CC4)CC3)C2)ccc1Nc1ncc2cc(Cl)c(=O)n(C3CCCC3)c2n1 (stereo not drawn) [I-81] | A (A (>75% o)) | < 0.1 | – |
| Cc1cc(S(=O)(=O)C2CC3(CCN(CC4CCN(c5cccc6c(N7CCC(=O)NC7=O)cncc56)CC4)CC3)C2)ccc1Nc1ncc2cc(Cl)c(=O)n(C3CCCC3)c2n1 [I-82] | A (A (>75% o)) | < 0.1 | – |
| Cc1cc(S(=O)(=O)C2CC3(CCN(CC4CCN(c5cccc6c5n(C)c(=O)n6C5CCC(=O)NC5=O)CC4)CC3)C2)ccc1Nc1ncc2cc(C(F)F)c(=O)n(C3CCCC3)c2n1 (stereo not drawn) [I-86] | A (A (>75% o)) | < 0.1 | – |
| Cc1cc(S(=O)(=O)C2CC3(CCN(CC4CCN(c5cccc(NC6CCC(=O)NC6=O)c5)CC4)CC3)C2)ccc1Nc1ncc2cc(Cl)c(=O)n(C3CCCC3)c2n1 (stereo not drawn) [I-87] | A (A (>75% o)) | < 0.1 | – |
| COc1ccc2c(c1N1CCC(CN3CCC4(CC3)CC(S(=O)(=O)c3ccc(Nc5ncc6cc(Cl)c(=O)n(C7CCCC7)c6n5)c(C)c3)C4)CC1)n(C)c(=O)n2C1CCC(=O)NC1=O (stereo not drawn) [I-88] | A (A (>75% o)) | < 0.1 | – |
| Cc1cc(S(=O)(=O)C2CC3(CCN(CC4CCN(c5ccc(NC6CCC(=O)NC6=O)c(F)c5)CC4)CC3)C2)ccc1Nc1ncc2cc(Cl)c(=O)n(C3CCCC3)c2n1 (stereo not drawn) [I-90] | B (B (>50% -75%)) | 0.1 to 0.5 | – |
| Cc1cc(S(=N)(=O)C2CC3(CCN(CC4CCN(c5cccc6c5n(C)c(=O)n6C5CCC(=O)NC5=O)CC4)CC3)C2)ccc1Nc1ncc2cc(Cl)c(=O)n(C3CCCC3)c2n1 (stereo not drawn) [I-93] | A (A (>75% o)) | < 0.1 | – |
| Cc1cc(S(=O)(=O)C2CC3(CCN(CC4CCN(c5cccc6c5n(C)c(=O)n6C5CCC(=O)NC5=O)CC4)CC3)C2)ccc1Nc1ncc(C(F)(F)F)c(C2CCC(C)(O)CC2)n1 (stereo not drawn) [I-119] | A (A (>75% o)) | < 0.1 | – |
| Cc1cc(S(=O)(=O)C2CC3(CCN(CC4CCN(c5ccc6c(c5F)n(C)c(=O)n6C5CCC(=O)NC5=O)CC4)CC3)C2)ccc1Nc1ncc2c(n1)N(C1CCCC1)C(=O)N(C)C2 (stereo not drawn) [I-125] | A (A (>75% o)) | < 0.1 | – |
| Cc1cc(S(=O)(=O)C2CC3(CCN(CC4CCN(c5ccc6c(c5F)n(C)c(=O)n6C5CCC(=O)NC5=O)CC4)CC3)C2)ccc1Nc1ncc2cc(Cl)c(=O)n(C(C)C)c2n1 (stereo not drawn) [I-128] | A (A (>75% o)) | < 0.1 | – |

| SMILES | CDK2 degradation 14 h: Average Dmax % | DC50 [µM] | CDK2 degradation 14 h: Mean external-Abs DC50 (nM) |
| --- | --- | --- | --- |
| Cc1cc(S(=O)(=O)C2CC3(CCN(CC4CCN(c5ccc6c(c5F)n(C)c(=O)n6C5CCC(=O)NC5=O)CC4)CC3)C2)ccc1Nc1ncc2cc(Cl)c(=O)n(C3CCOC3)c2n1 (stereo not drawn) [I-129] | C (C (>25% -50%)) | – | E |
| Cc1cc(S(=O)(=O)C2CC3(CCN(CC4CCN(c5ccc6c(c5F)n(C)c(=O)n6C5CCC(=O)NC5=O)CC4)CC3)C2)ccc1Nc1ncc2cc(Cl)c(=O)n(C3CCOCC3)c2n1 (stereo not drawn) [I-130] | D (D (<25%)) | > 1 | – |
| Cc1cc(S(=O)(=O)C2CC3(CCN(CC4CCN(c5ccc(NC6CCC(=O)NC6=O)cc5F)CC4)CC3)C2)ccc1Nc1ncc2cc(Cl)c(=O)n(C3CCCC3)c2n1 (stereo not drawn) [I-152] | B (B (>50% -75%)) | < 0.1 | – |
| Cc1cc(S(=O)(=O)N2CCC(C(F)(F)CN3CCN(c4cccc5c4n(C)c(=O)n5C4CCC(=O)NC4=O)CC3)CC2)ccc1Nc1ncc2cc(Cl)c(=O)n(C3CCCC3)c2n1 (stereo not drawn) [I-163] | B (B (>50% -75%)) | > 1 | – |
| Cc1cc(S(=O)(=O)N[C@H]2C[C@H](N3CCN(CC4CCN(c5ccc6c(c5)n(C)c(=O)n6C5CCC(=O)NC5=O)CC4)CC3)C2)ccc1Nc1ncc2cc(Cl)c(=O)n(C(C)C)c2n1 (stereo partly drawn) [I-203] | A (A (>75% o)) | < 0.1 | – |
| Cc1cc(S(=O)(=O)C2CC3(CCN(CC4CCN(c5ccc(NC6CCC(=O)NC6=O)c6ccccc56)CC4)CC3)C2)ccc1Nc1ncc2ccc(=O)n(C(C)C)c2n1 (stereo not drawn) [I-206] | B (B (>50% -75%)) | 0.1 to 0.5 | – |
| Cc1cc(S(=O)(=O)C2CC3(CCN(C(=O)COC4CN(c5ccc6c(c5F)n(C)c(=O)n6C5CCC(=O)NC5=O)C4)CC3)C2)ccc1Nc1ncc2ccc(=O)n(C3CCCC3)c2n1 (stereo not drawn) [I-259] | D (D (<25%)) | > 1 | – |
| Cc1cc(S(=O)(=O)N[C@H]2C[C@H](N3CCN(CC4CCN(c5ccc(NC6CCC(=O)NC6=O)cc5C)CC4)CC3)C2)ccc1Nc1ncc2ccc(=O)n(C3CCCC3)c2n1 (stereo partly drawn) [I-276] | A (A (>75% o)) | < 0.1 | – |
| Cc1cc(S(=O)(=O)N2CCC(Cn3cnc4c3CCN(c3ccc5c(c3F)n(C)c(=O)n5C3CCC(=O)NC3=O)C4)CC2)ccc1Nc1ncc2ccc(=O)n(C3CCCC3)c2n1 (stereo not drawn) [I-280] | C (C (>25% -50%)) | > 1 | – |
| Cc1cc(S(=O)(=O)C2CC3(CCN(CC4CCN(c5ccc6c(c5F)n(C)c(=O)n6C5CCC(=O)NC5=O)CC4)CC3)C2)ccc1Nc1ncc2cc(Cl)c(=O)n(C(C)C3CC3)c2n1 (stereo not drawn) [I-285] | A (A (>75% o)) | < 0.1 | – |
| Cc1cc(S(=O)(=O)C2CC3(CCN(CC4CCN(c5ccc6c(c5F)n(C)c(=O)n6C5CCC(=O)NC5=O)CC4)CC3)C2)ccc1Nc1cc2c(ccc(=O)n2C2CCCC2)cn1 (stereo not drawn) [I-286] | A (A (>75% o)) | < 0.1 | – |
| Cc1cc(S(=O)(=O)N2CCC(CCN3CCN(c4ccc5c(c4F)n(C)c(=O)n5C4CCC(=O)NC4=O)CC3)CC2)ccc1Nc1ncc2ccc(=O)n(C3CCCC3)c2n1 (stereo not drawn) [I-287] | A (A (>75% o)) | < 0.1 | – |
| Cc1cc(S(=O)(=O)C2CC3(CCN(CC4CCN(c5ccc6c(oc(=O)n6C6CCC(=O)NC6=O)c5F)CC4)CC3)C2)ccc1Nc1ncc2cc(Cl)c(=O)n(C3CCCC3)c2n1 (stereo not drawn) [I-302] | A (A (>75% o)) | < 0.1 | – |
| Cc1cc(S(=O)(=O)C2CC3(CCN(CC4CCN(c5cnc6c(c5)c(C)cn6C5CCC(=O)NC5=O)CC4)CC3)C2)ccc1Nc1ncc2cc(Cl)c(=O)n(C3CCCC3)c2n1 (stereo not drawn) [I-305] | A (A (>75% o)) | 0.1 to 0.5 | – |
| Cc1cc(S(=O)(=O)NCCOC2CCC(CN3CCN(c4ccc(NC5CCC(=O)NC5=O)cc4C)CC3)CC2)ccc1Nc1ncc2cc(Cl)c(=O)n(C3CCCC3)c2n1 (stereo not drawn) [I-308] | A (A (>75% o)) | < 0.1 | – |
| CCOc1cc(NC2CCC(=O)NC2=O)ccc1N1CCC(CN2CCC3(CC2)CC(S(=O)(=O)c2ccc(Nc4ncc5cc(Cl)c(=O)n(C6CCCC6)c5n4)c(C)c2)C3)CC1 (stereo not drawn) [I-309] | A (A (>75% o)) | 0.1 to 0.5 | – |
